Results: paper PMC9049830 (RSC Advances, 2020)
Where “and” joins values, the source holds several entries; their conditions need not be identical. Equal entries are not always repeated. Marks after values point to notes of the source that are not given here.

Assays:
[1] = Thermal stability by TG analysis; format: physicochemical
Solubility = format: physicochemical; settings: for Solubility in water: deionised water, 25 °C; for Solubility in phosphate buffer pH = 5.4: pH 5.4, 25 °C; for Solubility in phosphate buffer pH = 7.4: pH 7.4, 25 °C
[2] = n-octanol/water and n-octanol/phosphate buffer partition coefficient; format: physicochemical; settings: for log PpH=5.4: n-octanol/phosphate buffer pH 5.4, 25 °C; for log PpH=7.4: n-octanol/phosphate buffer pH 7.4, 25 °C
[3] = Skin permeation studies in Franz diffusion cells; format: in vitro ADME, porcine; settings: after 24 h permeation from ethanolic solution into acceptor phase
[4] = Accumulation in the skin after 24 h permeation; format: in vitro ADME, porcine; settings: after 24 h skin permeation from ethanolic solution; for Skin accumulation: acceptor fluid pH 7.4, n = 3
[5] = Solubility in organic solvents by modified Vogel's method; format: physicochemical; settings: 25 °C
[6] = Britton–Robinson buffer at pH 7.4 as acceptor and donor solution; cited from earlier work
[7] = known ibuprofen salts; cited from earlier work
L929 cell lines = settings: high concentrations; cited from earlier work

Compound	T onset, the onset temperature of the thermal degradation [1] [°C]	Solubility in water (Solubility) [g dm^−3]	Solubility in phosphate buffer pH = 5.4 (Solubility) [g dm^−3]	Solubility in phosphate buffer pH = 7.4 (Solubility) [g dm^−3]	log PpH=5.4 [2]	log PpH=7.4 [2]	Permeation as % applied dose of IBU [3] [%]	Skin accumulation as % applied dose of IBU [4] [%]	Skin accumulation [4]	Solubility in hexane (in words) [5]	logP ([2]; n-octanol/water)	Flux [6] [μg cm^−2 h^−1]	log P [7]	Increase in flux compared to IBU [6]	Decrease of viability (L929 cell lines) [%]
CC(C)Cc1ccc(C(C)C(=O)O)cc1.CCOC(=O)[C@@H](N)C(C)C [[ValOEt][IBU], L-valine ethyl ester ibuprofenate]	89.5	5.542 ± 0.007	3.969 ± 0.056	5.206 ± 0.044	2.023 ± 0.001	1.026 and 1.026 ± 0.001	7.33	3.5	412.19 ± 38.45 μg IBU g^−1	–	–	–	–	–	–
CC(C)Cc1ccc(C(C)C(=O)O)cc1.CCCCCCOC(=O)[C@@H](N)C(C)C [[ValOHex][IBU], L-valine hexyl ester ibuprofenate]	128.9	1.058 ± 0.002	0.759 ± 0.006	1.233 ± 0.001	2.880 ± 0.011	1.279 and 1.279 ± 0.001	9.81	–	612.86 ± 129.33 ^a μg IBU g^−1	soluble (soluble when more than 100 mg of compound was soluble in 1 cm^3)	–	–	–	–	–
CC(C)Cc1ccc(C(C)C(=O)O)cc1.CCCOC(=O)[C@@H](N)C(C)C [[ValOPr][IBU], L-valine propyl ester ibuprofenate]	109.5	4.221 ± 0.033	3.057 ± 0.045	5.367 ± 0.019	2.061 ± 0.001	1.197 ± 0.003	13.55	5.9	726.42 ± 113.37 ^a μg IBU g^−1	–	–	–	–	–	–
CC(C)Cc1ccc(C(C)C(=O)O)cc1 (racemic) [rac-IBU, 2-(4-isobutylphenyl)-propionic acid, reference compound]	189.8	–	–	–	3.192	1.284	6.06	3.1	745.69 ± 61.87 μg IBU g^−1	–	2.415 ± 0.001	0.542	–	–	–
CC(C)Cc1ccc(C(C)C(=O)[O-])cc1.CCCC[P+](CCCC)(CCCC)CCCC [[P4,4,4,4][IBU]]	–	–	–	–	–	–	–	–	–	–	–	–	1.54	–	–
L-valine isopropyl ester ibuprofenate [[ValOiPr][IBU]]	90.2	–	–	–	2.186 ± 0.001	1.172 ± 0.001	12.09	4.9	630.75 ± 61.87 ^a μg IBU g^−1	–	–	–	–	–	–
CC(C)Cc1ccc(C(C)C(=O)[O-])cc1.CCCCCCCCCC[N+](C)(C)CCCCCCCCCC [[N1,1,10,10][IBU]]	–	–	–	–	–	–	–	–	–	–	–	–	1.87	four–five-fold	–
CC(C)Cc1ccc(C(C)C(=O)O)cc1.CCCCOC(=O)[C@@H](N)C(C)C [[ValOBu][IBU], L-valine butyl ester ibuprofenate]	119.9	3.125 ± 0.007	2.371 ± 0.016	3.089 ± 0.015	–	–	10.66	7.0	815.14 ± 58.92 ^b μg IBU g^−1	–	–	–	–	–	–
CC(C)Cc1ccc(C(C)C(=O)O)cc1.CCCCCOC(=O)[C@@H](N)C(C)C [[ValOAm][IBU], L-valine pentyl ester ibuprofenate]	129.8	1.798 ± 0.019	1.380 ± 0.007	1.931 ± 0.008	2.421 ± 0.002	1.259 ± 0.001	11.79	–	565.60 ± 71.09 ^a μg IBU g^−1	partly soluble (partly soluble when 33–100 mg of compound dissolved in 1 cm^3)	–	–	–	–	–
CCOC(=O)[C@@H]1CCCN1 [proline ethyl ester]	–	–	–	–	–	–	–	–	–	–	–	–	–	–	20
CC(C)Cc1ccc(C(C)C(=O)[O-])cc1.CCCCCC[N+](CCCCCC)(CCCCCC)CCCCCC [[N6,6,6,6][IBU]]	–	–	–	–	–	–	–	–	–	–	–	–	2.47	four–five-fold	–
CC(C)Cc1ccc(C(C)C(=O)[O-])cc1.CCCCn1cc[n+](C)c1 (stereo not shown) [[BMIm][IBU]]	–	–	–	–	–	–	–	–	–	–	–	–	1.15	–	–
